Measurements from publication PMC5218480 (PLoS ONE, 2017).

Test system: MV-4-11 cells
Test: Gene expression microarray analysis (Affymetrix PrimeView) and GSEA
Type: cell-based, human
Parameters: RFU PODN (11730768_x_at) / Fold change /veh PODN (11730768_x_at) / RFU LINC00158 (11744669_a_at) / Fold change /veh LINC00158 (11744669_a_at) / RFU DUSP10 (11751237_a_at) / Fold change /veh DUSP10 (11751237_a_at) / RFU ID3 (11757404_x_at) / Fold change /veh ID3 (11757404_x_at) / RFU PLEKHG5 (11737974_s_at) / Fold change /veh PLEKHG5 (11737974_s_at) / RFU LRRC4B (11730491_at) / Fold change /veh LRRC4B (11730491_at) / RFU GIMAP4 (11747438_a_at) / Fold change /veh GIMAP4 (11747438_a_at) / RFU KRT8 (11758183_x_at) / Fold change /veh KRT8 (11758183_x_at) / RFU CNN1 (11734310_a_at) / Fold change /veh CNN1 (11734310_a_at) / RFU VPS37D (11726825_at) / Fold change /veh VPS37D (11726825_at) / RFU C10orf10 (11716522_x_at) / Fold change /veh C10orf10 (11716522_x_at) / RFU KIR2DL2 /// KIR2DL4 /// KIR2DL5A /// KIR2DL5B /// KIR2DS1 /// KIR2DS2 /// KIR2DS3 /// KIR2DS4 /// KIR3DL3 /// KIR3DL3 /// KIR3DS1 (11738374_at) / Fold change /veh KIR2DL2 /// KIR2DL4 /// KIR2DL5A /// KIR2DL5B /// KIR2DS1 /// KIR2DS2 /// KIR2DS3 /// KIR2DS4 /// KIR3DL3 /// KIR3DL3 /// KIR3DS1 (11738374_at) / RFU C1QL1 (11718748_at) / Fold change /veh C1QL1 (11718748_at) / RFU TMPRSS4 (11747572_a_at) / Fold change /veh TMPRSS4 (11747572_a_at) / RFU HAMP (11756126_x_at) / Fold change /veh HAMP (11756126_x_at) / RFU RNFT2 (11725882_a_at) / Fold change /veh RNFT2 (11725882_a_at) / RFU NR4A2 (11747474_a_at) / Fold change /veh NR4A2 (11747474_a_at) / RFU ABCC12 (11746883_a_at) / Fold change /veh ABCC12 (11746883_a_at) / RFU TMEM136 (11760407_x_at) / Fold change /veh TMEM136 (11760407_x_at) / RFU CLDN22 /// WWC2 (11732394_at) / Fold change /veh CLDN22 /// WWC2 (11732394_at) / RFU HLA-DPB1 (11760878_x_at) / Fold change /veh HLA-DPB1 (11760878_x_at) / RFU SPINT1 (11716480_a_at) / Fold change /veh SPINT1 (11716480_a_at) / RFU GAP43 (11754022_s_at) / Fold change /veh GAP43 (11754022_s_at) / RFU A4GNT (11735810_at) / Fold change /veh A4GNT (11735810_at) / RFU PRB3 (11715151_x_at) / Fold change /veh PRB3 (11715151_x_at) / RFU TUBB4B (11761932_at) / Fold change /veh TUBB4B (11761932_at) / RFU CAPN14 (11732068_a_at) / Fold change /veh CAPN14 (11732068_a_at) / RFU TMCC2 (11721928_a_at) / Fold change /veh TMCC2 (11721928_a_at) / RFU IRGQ (11745062_a_at) / Fold change /veh IRGQ (11745062_a_at) / RFU FAM174B (11720279_a_at) / Fold change /veh FAM174B (11720279_a_at) / RFU TMPRSS4 (11748680_a_at) / Fold change /veh TMPRSS4 (11748680_a_at) / RFU FAM212B (11763350_a_at) / Fold change /veh FAM212B (11763350_a_at) / RFU PLEKHG5 (11743358_a_at) / Fold change /veh PLEKHG5 (11743358_a_at) / RFU ZSCAN30 (11745921_a_at) / Fold change /veh ZSCAN30 (11745921_a_at) / RFU CMKLR1 (11741424_a_at) / Fold change /veh CMKLR1 (11741424_a_at) / RFU LOC101060620 /// MAPK8IP1 (11723275_at) / Fold change /veh LOC101060620 /// MAPK8IP1 (11723275_at) / RFU SPTSSB (11747773_x_at) / Fold change /veh SPTSSB (11747773_x_at) / RFU PRSS12 (11739890_at) / Fold change /veh PRSS12 (11739890_at) / RFU BIN1 (11741810_x_at) / Fold change /veh BIN1 (11741810_x_at) / RFU WNT11 (11732464_a_at) / Fold change /veh WNT11 (11732464_a_at) / RFU C10orf10 (11716521_a_at) / Fold change /veh C10orf10 (11716521_a_at) / RFU C5orf56 (11738089_at) / Fold change /veh C5orf56 (11738089_at) / RFU CYB561 (11721691_x_at) / Fold change /veh CYB561 (11721691_x_at) / RFU ANKRD19P (11752326_a_at) / Fold change /veh ANKRD19P (11752326_a_at) / RFU OR2T12 /// OR2T33 /// OR2T8 (11738714_s_at) / Fold change /veh OR2T12 /// OR2T33 /// OR2T8 (11738714_s_at) / RFU VCAN (11748164_a_at) / Fold change /veh VCAN (11748164_a_at) / RFU JSRP1 (11732532_at) / Fold change /veh JSRP1 (11732532_at) / RFU KRTAP10-11 (11738290_x_at) / Fold change /veh KRTAP10-11 (11738290_x_at) / RFU MYO3A (11730013_a_at) / Fold change /veh MYO3A (11730013_a_at) / RFU EBF3 (11725865_a_at) / Fold change /veh EBF3 (11725865_a_at) / RFU CAMK2N1 (11719241_x_at) / Fold change /veh CAMK2N1 (11719241_x_at) / RFU C5orf56 (11738088_a_at) / Fold change /veh C5orf56 (11738088_a_at) / RFU OLFML3 (11715873_a_at) / Fold change /veh OLFML3 (11715873_a_at) / RFU LOC100653217 /// NTM (11731650_a_at) / Fold change /veh LOC100653217 /// NTM (11731650_a_at) / RFU MAPK11 (11762145_a_at) / Fold change /veh MAPK11 (11762145_a_at) / RFU FIZ1 (11724087_x_at) / Fold change /veh FIZ1 (11724087_x_at) / RFU OASL (11726364_x_at) / Fold change /veh OASL (11726364_x_at) / RFU SOX15 (11748057_x_at) / Fold change /veh SOX15 (11748057_x_at) / RFU CD79A (11719716_a_at) / Fold change /veh CD79A (11719716_a_at) / RFU HIST1H1D (11736915_at) / Fold change /veh HIST1H1D (11736915_at) / RFU CASKIN2 (11723855_a_at) / Fold change /veh CASKIN2 (11723855_a_at) / RFU LOC730098 (11760151_x_at) / Fold change /veh LOC730098 (11760151_x_at) / RFU OR4N2 (11742367_at) / Fold change /veh OR4N2 (11742367_at) / RFU PRRT2 (11749266_a_at) / Fold change /veh PRRT2 (11749266_a_at) / RFU SNX32 (11753110_a_at) / Fold change /veh SNX32 (11753110_a_at) / RFU CDHR5 (11726645_a_at) / Fold change /veh CDHR5 (11726645_a_at) / RFU RCAN1 (11760418_a_at) / Fold change /veh RCAN1 (11760418_a_at) / RFU FAM167A (11723789_a_at) / Fold change /veh FAM167A (11723789_a_at) / RFU FAM26E (11764081_at) / Fold change /veh FAM26E (11764081_at) / RFU ISYNA1 (11749810_s_at) / Fold change /veh ISYNA1 (11749810_s_at) / RFU ACY1 (11761880_at) / Fold change /veh ACY1 (11761880_at) / RFU 11764098_at / Fold change /veh 11764098_at / RFU SAMD14 (11745864_x_at) / Fold change /veh SAMD14 (11745864_x_at) / RFU NPB (11741838_a_at) / Fold change /veh NPB (11741838_a_at) / RFU TMPRSS6 (11731388_a_at) / Fold change /veh TMPRSS6 (11731388_a_at) / RFU KRTAP10-2 (11738614_at) / Fold change /veh KRTAP10-2 (11738614_at) / RFU ARHGAP8 /// PRR5-ARHGAP8 (11727945_x_at) / Fold change /veh ARHGAP8 /// PRR5-ARHGAP8 (11727945_x_at) / RFU KRTAP5-7 /// NADSYN1 (11734609_at) / Fold change /veh KRTAP5-7 /// NADSYN1 (11734609_at) / RFU RASL12 (11751679_a_at) / Fold change /veh RASL12 (11751679_a_at) / RFU CDKN2B (11736163_a_at) / Fold change /veh CDKN2B (11736163_a_at) / RFU PRF1 (11729649_at) / Fold change /veh PRF1 (11729649_at) / RFU, ZNF638 /// ZNF638-IT1 / Fold change vs veh, ZNF638 /// ZNF638-IT1 / RFU, PANK3 / Fold change vs veh, PANK3 / RFU, SH3YL1 / Fold change vs veh, SH3YL1 / RFU, ZEB2 / Fold change vs veh, ZEB2 / RFU, NRIP1 / Fold change vs veh, NRIP1 / RFU, PTTG1IP / Fold change vs veh, PTTG1IP / RFU, CAPN2 / Fold change vs veh, CAPN2 / RFU, MED14 / Fold change vs veh, MED14 / RFU, SNORA58 / Fold change vs veh, SNORA58 / RFU, C1orf63 / Fold change vs veh, C1orf63 / RFU, LRRFIP1 / Fold change vs veh, LRRFIP1 / RFU, NDUFAF7 / Fold change vs veh, NDUFAF7 / RFU, SLC12A2 / Fold change vs veh, SLC12A2 / RFU, IBTK / Fold change vs veh, IBTK / RFU, ESF1 / Fold change vs veh, ESF1 / Fold change vs veh, TMEM50B / RFU, TAOK1 / Fold change vs veh, TAOK1 / RFU, ACBD3 / Fold change vs veh, ACBD3 / RFU, TMA16 / Fold change vs veh, TMA16 / RFU, RWDD3 / Fold change vs veh, RWDD3 / RFU, BCAT1 / Fold change vs veh, BCAT1 / RFU, EDEM3 / Fold change vs veh, EDEM3 / RFU, TMEM33 / Fold change vs veh, TMEM33 / RFU, WDR75 / Fold change vs veh, WDR75 / RFU, AHCTF1 / Fold change vs veh, AHCTF1 / RFU, TFRC / Fold change vs veh, TFRC / RFU, ZDHHC17 / Fold change vs veh, ZDHHC17 / RFU, NOM1 / Fold change vs veh, NOM1 / RFU, ARL8B / Fold change vs veh, ARL8B / RFU, ZBTB11 / Fold change vs veh, ZBTB11 / RFU, TAMM41 / Fold change vs veh, TAMM41 / RFU, KIAA1704 /// LOC100996395 / Fold change vs veh, KIAA1704 /// LOC100996395 / RFU, ING1 / Fold change vs veh, ING1 / RFU, TRMT61B / Fold change vs veh, TRMT61B / RFU, FUBP3 / Fold change vs veh, FUBP3 / RFU, TP53 / Fold change vs veh, TP53 / RFU, TNKS2 / Fold change vs veh, TNKS2 / RFU, ZFP14 / Fold change vs veh, ZFP14 / RFU, ACTR2 / Fold change vs veh, ACTR2 / RFU, PPP3R1 / Fold change vs veh, PPP3R1 / RFU, PIK3R1 / Fold change vs veh, PIK3R1 / RFU, HNRNPA1 / Fold change vs veh, HNRNPA1 / RFU, RNF170 / Fold change vs veh, RNF170 / RFU, ZNF28 / Fold change vs veh, ZNF28 / RFU, RNGTT / Fold change vs veh, RNGTT / RFU, OGT / Fold change vs veh, OGT / RFU, BRD1 / Fold change vs veh, BRD1 / RFU, MARS / Fold change vs veh, MARS / RFU, ZNF655 / Fold change vs veh, ZNF655 / RFU, FAHD1 / Fold change vs veh, FAHD1 / RFU, BDP1 / Fold change vs veh, BDP1 / RFU, LRRCC1 / Fold change vs veh, LRRCC1 / RFU, ARID1A / Fold change vs veh, ARID1A / RFU, ZNF146 / Fold change vs veh, ZNF146 / RFU, ZNF330 / Fold change vs veh, ZNF330 / RFU, GPN3 / Fold change vs veh, GPN3 / RFU, C9orf123 / Fold change vs veh, C9orf123 / RFU, N4BP2L2 / Fold change vs veh, N4BP2L2 / RFU, ARFIP1 / Fold change vs veh, ARFIP1 / RFU, FAM179B / Fold change vs veh, FAM179B / RFU, BCL10 / Fold change vs veh, BCL10 / RFU, UHRF1BP1L / Fold change vs veh, UHRF1BP1L / RFU, BET1 / Fold change vs veh, BET1 / RFU, CNOT2 / Fold change vs veh, CNOT2 / RFU, ZNF268 / Fold change vs veh, ZNF268 / Fold change vs veh, ZNF507 / RFU, DGCR2 / Fold change vs veh, DGCR2 / RFU, WDSUB1 / Fold change vs veh, WDSUB1 / Fold change vs veh, HSP90B1 /// MIR3652 / RFU, ADSS / Fold change vs veh, ADSS / RFU, GK / Fold change vs veh, GK / RFU, ZNF148 / Fold change vs veh, ZNF148 / RFU, TAF9 / Fold change vs veh, TAF9 / RFU, SLC1A5 / Fold change vs veh, SLC1A5 / RFU, SLMO2 / Fold change vs veh, SLMO2 / RFU, ABCC4 / Fold change vs veh, ABCC4 / RFU, LOC101060439 /// RAP1B / Fold change vs veh, LOC101060439 /// RAP1B / RFU, RFX7 / Fold change vs veh, RFX7 / RFU, GTPBP10 / Fold change vs veh, GTPBP10 / RFU, CNEP1R1 / Fold change vs veh, CNEP1R1 / RFU, BIVM-ERCC5 /// ERCC5 / Fold change vs veh, BIVM-ERCC5 /// ERCC5 / RFU, ILF3 / Fold change vs veh, ILF3 / RFU 11762660_at / Fold change /veh 11762660_at / RFU VCAN (11757783_s_at) / Fold change /veh VCAN (11757783_s_at) / RFU DDX43 (11728927_at) / Fold change /veh DDX43 (11728927_at) / RFU KRT8 (11758188_x_at) / Fold change /veh KRT8 (11758188_x_at) / RFU NKD1 (11759106_at) / Fold change /veh NKD1 (11759106_at) / RFU SRD5A1 (11742802_a_at) / Fold change /veh SRD5A1 (11742802_a_at) / RFU TPSAB1 /// TPSB2 (11721975_s_at) / Fold change /veh TPSAB1 /// TPSB2 (11721975_s_at) / RFU GSTM3 (11746129_a_at) / Fold change /veh GSTM3 (11746129_a_at) / RFU IL23R (11737362_x_at) / Fold change /veh IL23R (11737362_x_at) / RFU TMEM51 (11727254_a_at) / Fold change /veh TMEM51 (11727254_a_at) / RFU PIWIL2 (11732686_x_at) / Fold change /veh PIWIL2 (11732686_x_at) / RFU ORM1 (11744905_x_at) / Fold change /veh ORM1 (11744905_x_at) / RFU CCDC152 (11743942_at) / Fold change /veh CCDC152 (11743942_at) / RFU ECM1 (11717891_a_at) / Fold change /veh ECM1 (11717891_a_at) / RFU IL23R (11748794_a_at) / Fold change /veh IL23R (11748794_a_at) / RFU TNFAIP8L3 (11732012_x_at) / Fold change /veh TNFAIP8L3 (11732012_x_at) / RFU MBOAT4 (11741988_at) / Fold change /veh MBOAT4 (11741988_at) / RFU 11764193_at / Fold change /veh 11764193_at / RFU TMEM53 (11763286_at) / Fold change /veh TMEM53 (11763286_at) / RFU MAGEB2 (11727129_at) / Fold change /veh MAGEB2 (11727129_at) / RFU TMEM200A (11744735_a_at) / Fold change /veh TMEM200A (11744735_a_at) / RFU CCDC152 (11751479_a_at) / Fold change /veh CCDC152 (11751479_a_at) / RFU FAM211A (11726209_a_at) / Fold change /veh FAM211A (11726209_a_at) / RFU RGS16 (11746705_a_at) / Fold change /veh RGS16 (11746705_a_at) / RFU VCAN (11755009_s_at) / Fold change /veh VCAN (11755009_s_at) / RFU RHOB (11743442_s_at) / Fold change /veh RHOB (11743442_s_at) / RFU RGS16 (11720943_a_at) / Fold change /veh RGS16 (11720943_a_at) / RFU RGS16 (11720944_at) / Fold change /veh RGS16 (11720944_at) / RFU, VPS4B / Fold change vs veh, VPS4B / RFU, CREB1 / Fold change vs veh, CREB1 / RFU, DNAJC13 / Fold change vs veh, DNAJC13 / RFU, GNAQ / Fold change vs veh, GNAQ / RFU, CDK5R1 / Fold change vs veh, CDK5R1 / RFU, ZRANB3 / Fold change vs veh, ZRANB3 / RFU, CUL4A / Fold change vs veh, CUL4A / RFU, CCNY / Fold change vs veh, CCNY / RFU, UFL1 / Fold change vs veh, UFL1 / RFU, COG3 / Fold change vs veh, COG3 / RFU, DIAPH2 / Fold change vs veh, DIAPH2 / RFU, SKA2 / Fold change vs veh, SKA2 / RFU, AFF3 / Fold change vs veh, AFF3 / RFU, LMF1 / Fold change vs veh, LMF1 / RFU, IPO11 / Fold change vs veh, IPO11 / RFU, DFFB / Fold change vs veh, DFFB / RFU, FOXP1 / Fold change vs veh, FOXP1 / RFU, CARD8 / Fold change vs veh, CARD8 / RFU, STRN3 / Fold change vs veh, STRN3 / RFU, ADK / Fold change vs veh, ADK / RFU, RASSF2 / Fold change vs veh, RASSF2 / RFU, WIPF1 / Fold change vs veh, WIPF1 / RFU, LARP1B / Fold change vs veh, LARP1B / RFU, RASA1 / Fold change vs veh, RASA1 / RFU, RB1 / Fold change vs veh, RB1 / RFU, PPFIA1 / Fold change vs veh, PPFIA1 / RFU, MAT2A / Fold change vs veh, MAT2A / RFU, CCT5 / Fold change vs veh, CCT5 / RFU, WDR92 / Fold change vs veh, WDR92 / RFU, CUX1 / Fold change vs veh, CUX1 / RFU, TTC7A / Fold change vs veh, TTC7A / RFU, TMEM135 / Fold change vs veh, TMEM135 / RFU, DEPTOR / Fold change vs veh, DEPTOR / RFU, CPM / Fold change vs veh, CPM / RFU, DNAJB6 / Fold change vs veh, DNAJB6 / RFU, CACNA2D3 / Fold change vs veh, CACNA2D3 / RFU, DTX4 / Fold change vs veh, DTX4 / RFU, TFCP2 / Fold change vs veh, TFCP2 / RFU, GMCL1 /// GMCL1P1 / Fold change vs veh, GMCL1 /// GMCL1P1 / RFU, AEBP2 / Fold change vs veh, AEBP2 / RFU, SNHG1 /// SNORD22 /// SNORD25 /// SNORD26 /// SNORD27 /// SNORD28 /// SNORD29 /// SNORD31 / Fold change vs veh, SNHG1 /// SNORD22 /// SNORD25 /// SNORD26 /// SNORD27 /// SNORD28 /// SNORD29 /// SNORD31 / Fold change (Aza/veh), C12orf56 (ProbeSet 11735607_a_at) / Fold change (ACY-1035/veh), C12orf56 (ProbeSet 11735607_a_at) / Fold change (Aza/veh), FGFR1OP (ProbeSet 11751329_s_at) / Fold change (ACY-1035/veh), FGFR1OP (ProbeSet 11751329_s_at) / Fold change (Aza/veh), VPS36 (ProbeSet 11739960_a_at) / Fold change (ACY-1035/veh), VPS36 (ProbeSet 11739960_a_at) / RFU SYPL1 (11715823_x_at) / Fold change /veh SYPL1 (11715823_x_at) / RFU IGFBP7 (11715501_s_at) / Fold change /veh IGFBP7 (11715501_s_at) / RFU REEP3 (11722064_at) / Fold change /veh REEP3 (11722064_at) / RFU IGLL1 (11728026_x_at) / Fold change /veh IGLL1 (11728026_x_at): dose or concentration left out as unconfirmed
Conditions: ProbeSet 11748335_a_at; LIST B

Compound: Nc1ncn([C@@H]2O[C@H](CO)[C@@H](O)[C@H]2O)c(=O)n1 [azacitidine]
- RFU, SLMO2: 144.00 RFU
